Values of other authors as cited in patent US20260015582A1, “METHODS OF T CELL DIFFERENTIATION AND COMPOSITIONS THEREOF” (THE CHILDREN'S MEDICAL CENTER CORPORATION, priority 2022, published 2026).
pIC50: −log10 of the molar value.

How the values were obtained:
G9a/GLP = details: SAM-competitive manner
DIM5 = target: T1, DIM5 (Neurospora crassa, UniProt Q8X225)
T1 sequence (Q8X225 1-331): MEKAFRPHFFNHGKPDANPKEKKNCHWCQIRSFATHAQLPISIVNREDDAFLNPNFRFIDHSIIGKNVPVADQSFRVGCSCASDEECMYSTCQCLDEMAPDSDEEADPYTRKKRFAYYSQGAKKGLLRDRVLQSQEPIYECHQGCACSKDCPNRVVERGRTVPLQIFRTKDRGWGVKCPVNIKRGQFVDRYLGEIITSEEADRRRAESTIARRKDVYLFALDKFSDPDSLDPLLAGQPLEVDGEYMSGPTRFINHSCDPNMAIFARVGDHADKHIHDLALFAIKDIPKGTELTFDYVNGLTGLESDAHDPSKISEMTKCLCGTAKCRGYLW

Lys4-specific SET7/9 = target: T2, Lys4-specific SET7/9 (Homo sapiens, UniProt Q8WTS6)
T2 sequence (Q8WTS6 1-366): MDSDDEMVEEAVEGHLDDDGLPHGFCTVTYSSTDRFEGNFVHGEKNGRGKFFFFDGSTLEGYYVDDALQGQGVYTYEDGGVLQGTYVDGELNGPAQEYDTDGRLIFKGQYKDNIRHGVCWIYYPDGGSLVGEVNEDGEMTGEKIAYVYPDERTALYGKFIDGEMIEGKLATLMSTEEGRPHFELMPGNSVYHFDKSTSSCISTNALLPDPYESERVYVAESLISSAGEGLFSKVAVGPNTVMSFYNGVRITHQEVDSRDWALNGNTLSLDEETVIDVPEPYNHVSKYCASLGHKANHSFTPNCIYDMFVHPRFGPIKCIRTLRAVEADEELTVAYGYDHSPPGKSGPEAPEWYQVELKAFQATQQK

HMT SU(VAR)3-9 = HMT SU(VAR)3-9 (Drosophila melanogaster, UniProt P45975)
Chain of HMT SU(VAR)3-9 (P45975 with tags, fused parts or gaps): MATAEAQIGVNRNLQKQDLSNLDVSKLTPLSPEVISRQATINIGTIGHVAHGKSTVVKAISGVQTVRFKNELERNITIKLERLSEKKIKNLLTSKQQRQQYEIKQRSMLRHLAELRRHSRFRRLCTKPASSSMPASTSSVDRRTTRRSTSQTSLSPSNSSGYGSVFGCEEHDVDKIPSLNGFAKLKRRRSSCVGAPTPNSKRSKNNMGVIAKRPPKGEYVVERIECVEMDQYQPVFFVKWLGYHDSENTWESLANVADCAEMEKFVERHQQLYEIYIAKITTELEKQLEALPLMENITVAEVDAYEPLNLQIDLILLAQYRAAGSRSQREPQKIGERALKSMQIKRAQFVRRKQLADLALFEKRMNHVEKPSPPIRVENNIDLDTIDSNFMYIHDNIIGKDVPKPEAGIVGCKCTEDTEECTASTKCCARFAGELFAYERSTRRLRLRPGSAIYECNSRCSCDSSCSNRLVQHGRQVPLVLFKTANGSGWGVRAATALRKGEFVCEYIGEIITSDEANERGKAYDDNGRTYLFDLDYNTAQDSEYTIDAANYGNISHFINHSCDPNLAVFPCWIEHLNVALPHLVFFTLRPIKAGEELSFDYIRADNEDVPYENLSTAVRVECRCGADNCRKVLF

[1] = target: T3, class III isoenzyme SIRT1 (Homo sapiens, UniProt Q96EB6)
T3 sequence (Q96EB6 1-747): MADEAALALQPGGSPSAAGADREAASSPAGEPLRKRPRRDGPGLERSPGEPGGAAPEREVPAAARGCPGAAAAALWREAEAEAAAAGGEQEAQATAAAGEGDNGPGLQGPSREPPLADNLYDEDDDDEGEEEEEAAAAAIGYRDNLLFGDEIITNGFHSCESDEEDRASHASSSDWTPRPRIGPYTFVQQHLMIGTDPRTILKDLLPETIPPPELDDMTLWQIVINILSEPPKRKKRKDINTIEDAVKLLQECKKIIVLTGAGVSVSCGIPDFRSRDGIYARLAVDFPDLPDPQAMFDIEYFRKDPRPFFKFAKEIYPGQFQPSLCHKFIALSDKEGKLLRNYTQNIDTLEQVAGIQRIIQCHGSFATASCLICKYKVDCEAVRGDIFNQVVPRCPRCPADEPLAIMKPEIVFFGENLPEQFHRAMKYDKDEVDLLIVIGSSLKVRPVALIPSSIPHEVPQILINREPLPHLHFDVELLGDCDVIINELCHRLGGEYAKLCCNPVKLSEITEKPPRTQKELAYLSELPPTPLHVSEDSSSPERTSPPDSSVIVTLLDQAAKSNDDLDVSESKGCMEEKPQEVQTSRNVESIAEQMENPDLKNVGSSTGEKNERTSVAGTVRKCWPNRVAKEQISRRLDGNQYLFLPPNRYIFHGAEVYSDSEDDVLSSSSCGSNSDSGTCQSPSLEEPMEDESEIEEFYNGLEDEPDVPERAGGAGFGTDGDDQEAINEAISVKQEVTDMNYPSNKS

JMJD2E = target: T4, JMJD2E (Homo sapiens, UniProt B2RXH2); details: ECSD enzymatic assays
T4 sequence (B2RXH2 1-506): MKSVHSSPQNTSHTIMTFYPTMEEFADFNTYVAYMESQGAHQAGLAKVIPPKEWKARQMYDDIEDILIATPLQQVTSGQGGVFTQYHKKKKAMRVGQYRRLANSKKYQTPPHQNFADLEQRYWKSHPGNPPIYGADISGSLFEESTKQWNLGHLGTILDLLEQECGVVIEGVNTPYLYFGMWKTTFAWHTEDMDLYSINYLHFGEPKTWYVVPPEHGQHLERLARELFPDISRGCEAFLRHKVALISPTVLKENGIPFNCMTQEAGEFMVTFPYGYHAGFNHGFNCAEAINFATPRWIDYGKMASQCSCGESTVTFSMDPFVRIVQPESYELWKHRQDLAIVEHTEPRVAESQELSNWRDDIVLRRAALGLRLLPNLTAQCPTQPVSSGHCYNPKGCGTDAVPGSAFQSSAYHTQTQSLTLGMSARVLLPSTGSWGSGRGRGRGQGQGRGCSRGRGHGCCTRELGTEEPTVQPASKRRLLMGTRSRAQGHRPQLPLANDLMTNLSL

For COc1ccc(C(=O)Oc2ccc(CCn3c(NC(=O)c4ccc(C(F)(F)F)cc4)nc4cc(C(=O)O)ccc43)cc2)cc1 [BIX-01338], the G9a/GLP effective conc. (G9a/GLP) is listed as “G9a/GLP effective conc. = 15 μM”.
In the case of CN1C(=O)C23CC4([C@]56C[C@@]78SS[C@@](CO)(C(=O)N7[C@H]5Nc5ccccc56)N(C)C8=O)c5ccccc5NC4N2C(=O)[C@]1(CO)SS3 (stereo partly shown) [Chaetocin], the pIC50 (DIM5) is given as 5.52, the pIC50 (Lys27-specific EZH2) is given as < 4.05 and the pIC50 (Lys4-specific SET7/9) is given as < 4.05. For the same compound, the pIC50 (Lys20-specific PRSET7) was < 4.05, the pIC50 (G9a) was 5.60 and the pIC50 (HMT SU(VAR)3-9) was 6.10.
For CCCCc1nc2cc(/C=C/C(=O)NO)ccc2n1CCN(CC)CC [SB939, Pracinostat], the “activity against the class III isoenzyme SIRT1” value [1] is given as “no activity”.
In the case of COc1cc2c(NC3CCN(C)CC3)nc(N3CCCN(C)CC3)nc2cc1OCCOCCN(C)C [UNC0321], the “selectivity over JMJD2E” value (JMJD2E) is given as > 1000 fold and the pIC50 (JMJD2E; inactive) is given as < 4.40.
